# From PMC3927586, “Protein kinase C-delta inactivation inhibits the proliferation and survival of cancer stem cells in culture and in vivo” (BMC Cancer, 2014)
# pIC50: −log10 of the molar value.
# Legend:
# PCSC cells = assay: Cytotoxicity (LDH release) in pancreatic cancer stem cells; assay type: cell-based, human
# Experimental: (§1) LDH release was assessed by spectrophotometrically measuring the oxidation of NADH in both the cells and media. Cells were seeded in 24-well plates, and exposed to PKCδ inhibitors or vehicle. After different times of exposure, cytotoxicity was quantified by a standard measurement of LDH release with the use of the LDH assay kit (Roche Molecular Biochemicals) according to the manufacturer’s protocol. Briefly, total culture medium was cleared by centrifugation. For assay of released LDH, supernatants were collected. To assess total LDH in cells, Triton X-100 was added to vehicle (control) wells to release intracellular LDH. LDH assay reagent was added to lysates or supernatants and incubated for up to 30 min at room temperature in dark, the reaction was stopped, and the absorbance was measured at 490 nm. The percentage of LDH release was then calculated as the LDH in the supernatants as a fraction of the total LDH.
# Figure 2 Effects of PKCδ inhibitors on human cancer stem cells. (A) PCSC and PrCSC cells at 80% confluence were exposed to rottlerin. DMSO served as vehicle control (Vehicle). After 24 and 72 hr of exposure, cell mass was evaluated by MTT assay. Control values were normalized to 100%. p values for comparison between treatments reached significance at 24 hr of exposure (p≤0.01) for both cell types, and remained significant at 72 hr. (B) PCSC and PrCSC cells at 50% confluence were exposed to rottlerin. Cytotoxicity was evaluated by LDH-release assay. Total maximal LDH release was assigned the arbitrary value of 100% (Control). p values for comparison between effects of treatments on LDH release reached significance at 24 hr of exposure (p<0.01) for both cell types, and remained significant at 72 hr. (C) Effects of PKCδ inhibitor on tumor cell clonogenic capacity. PCSC were exposed to vehicle or rottlerin (10 μM) for 6, 18, 24, or 48 hr. Viable cells were enumerated and re-plated in media without inhibitor, and colony numbers were quantitated 15 days later. p values for comparison of treatment effects on clonogenic capacity reached significance (p=0.005) at 18 hr of exposure and remained significant for all subsequent exposure times. The insert is a photograph of stained colonies on plates. (D) Structures of staurosporine, rottlerin, second-generation (KAM1) and third-generation (BJE6-106) derivatives. (E) PCSC and PrCSC cells at 50% confluence were exposed to KAM1 at the indicated concentrations. DMSO served as vehicle control (Vehicle). Cytotoxicity was evaluated by LDH-release assay, as in panel B. p values for comparison between treatment effects on LDH release reached significance at 24 hr of exposure to 2.5 μM KAM1 for PCSC cells and at 10 μM for PrCSC (p≤0.01), and remained significant at 72 hr for all concentrations of KAM1. Error bars represent SEM.
# recombinant PKCα = target: T1, recombinant PKCα (Homo sapiens, UniProt P17252); assay: PKC kinase activity assay (Z-lyte), PKCα; assay type: biochemical; details: in vitro kinase assay; read-out: PKCα IC50
# T1 construct: purchased Invitrogen
# Experimental: (§2) Assays were carried out using recombinant PKCδ or PKCα, (Invitrogen) and the Z-lyte Kinase Assays (Invitrogen) with a “PKC-kinase-specific” peptide substrate. FRET interactions produce a change in fluorescence (ex455/ex520) upon phosphorylation. The kit was used according to the manufacturer’s instructions.
# PrCSC cells = assay: Cytotoxicity (LDH release) in prostate cancer stem cells; assay type: cell-based, human
# Experimental: as §1
# Figure 2 Effects of PKCδ inhibitors on human cancer stem cells. (A) PCSC and PrCSC cells at 80% confluence were exposed to rottlerin. DMSO served as vehicle control (Vehicle). After 24 and 72 hr of exposure, cell mass was evaluated by MTT assay. Control values were normalized to 100%. p values for comparison between treatments reached significance at 24 hr of exposure (p≤0.01) for both cell types, and remained significant at 72 hr. (B) PCSC and PrCSC cells at 50% confluence were exposed to rottlerin. Cytotoxicity was evaluated by LDH-release assay. […] Viable cells were enumerated and re-plated in media without inhibitor, and colony numbers were quantitated 15 days later. p values for comparison of treatment effects on clonogenic capacity reached significance (p=0.005) at 18 hr of exposure and remained significant for all subsequent exposure times. […] Cytotoxicity was evaluated by LDH-release assay, as in panel B. p values for comparison between treatment effects on LDH release reached significance at 24 hr of exposure to 2.5 μM KAM1 for PCSC cells and at 10 μM for PrCSC (p≤0.01), and remained significant at 72 hr for all concentrations of KAM1. […]
# recombinant PKCδ = target: T2, recombinant PKCδ (Homo sapiens, UniProt Q05655); assay: PKC kinase activity assay (Z-lyte), PKCδ; assay type: biochemical; details: in vitro kinase assay; read-out: PKCδ IC50
# T2 construct: purchased Invitrogen
# Experimental: as §2
# [1] = tested on: non-transformed cell lines; set-up: method as in PMID 21990324; details: cited from earlier work
# T2 sequence (Q05655 whole entry): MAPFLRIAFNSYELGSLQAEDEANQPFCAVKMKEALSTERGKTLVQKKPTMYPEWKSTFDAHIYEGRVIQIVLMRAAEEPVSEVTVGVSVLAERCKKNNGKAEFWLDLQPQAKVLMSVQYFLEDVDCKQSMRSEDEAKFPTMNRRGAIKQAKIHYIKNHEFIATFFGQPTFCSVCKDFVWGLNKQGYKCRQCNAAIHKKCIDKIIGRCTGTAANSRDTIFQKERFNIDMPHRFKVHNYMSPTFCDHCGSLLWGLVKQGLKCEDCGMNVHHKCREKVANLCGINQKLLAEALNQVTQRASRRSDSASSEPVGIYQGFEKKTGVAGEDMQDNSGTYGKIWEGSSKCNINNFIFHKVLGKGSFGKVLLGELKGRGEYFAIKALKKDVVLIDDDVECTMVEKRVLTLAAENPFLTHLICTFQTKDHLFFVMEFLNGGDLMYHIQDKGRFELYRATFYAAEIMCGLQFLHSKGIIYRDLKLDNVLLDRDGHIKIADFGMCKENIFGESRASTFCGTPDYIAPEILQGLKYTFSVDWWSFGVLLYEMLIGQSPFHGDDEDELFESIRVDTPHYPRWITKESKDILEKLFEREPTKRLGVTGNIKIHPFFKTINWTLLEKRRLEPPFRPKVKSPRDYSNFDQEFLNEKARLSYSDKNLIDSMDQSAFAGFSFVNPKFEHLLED
structure (smiles),measurement,setting,value
CC1(C)C=Cc2cc(CCn3c4ccccc4c4ccccc43)cc(C(=O)/C=C/c3ccccc3)c2O1 [KAM1],lowest concentration inducing cytotoxicity (LDH release) in PCSC,PCSC cells,2.5 µM
same,concentration at which LDH release reached significance in PCSC,"PCSC cells; 24 hr of exposure, p≤0.01",2.5 µM
same,pIC50,recombinant PKCα,3.80
same,lowest concentration inducing cytotoxicity (LDH release) in PrCSC,PrCSC cells,5 µM
same,concentration at which LDH release reached significance in PrCSC,"PrCSC cells; 24 hr of exposure, p≤0.01",10 µM
same,pIC50,recombinant PKCδ,5.70
same,cytotoxicity in non-transformed cell lines,[1],not producing cytotoxicity
